Legend:
rhodopsin [1] = biological target: T1, rhodopsin (Bos taurus, UniProt P02699); conditions: Okada et al., 2001; cited from earlier work
rhodopsin [2] = biological target: T1, rhodopsin; conditions: experimental result, retinal ligand/protein complex, Okada et al., 2001; cited from earlier work
bovine rhodopsin = bovine rhodopsin (Bos taurus, UniProt P02699); test: HierDock binding energy calculation (Eq. 1) of retinal ligands docked into the rhodopsin structure; conditions: all-trans-retinal versus 11-cis-retinal, HierDock Eq. 1
From the text: The negative of the molecular surface of the protein was used to define potential binding regions within the target protein over which the various ligand conformations are to be sampled. The void regions are mapped with spheres generated over the whole target protein using the Sphgen program in DOCK (see Kuntz laboratory at UCSF, San Francisco, Calif.).
To locate the most favorable ligand binding site(s), DOCK 4.0 (Ewing and Kuntz, 1997, incorporated herein by reference) can be used to generate a set of conformations for binding the ligand of interest (e.g. in the case of rhodopsin, 11-cis-retinal—a ligand known to bind to bovine rhodopsin) to each of the overlapping docking regions identified above. For this docking step, a bump filter of 10, a non-distance-dependent dielectric constant of 1.0, and a cutoff of 10 Å may be used for energy evaluation. These values may be adjusted according to specific target proteins. […]
The ligand/protein conformations from Step 5 are further energy-minimized with all atoms (protein, lipid, and ligand) movable using conjugate gradients. The structure with the binding energy calculated by Eq. 1 is selected as: BE1=Energy[ligand in protein complex]−Energy[free Ligand in solvent] […]
Here the energy of the ligand in water is calculated using DREIDING FF and analytical volume Generalized-Born continuum solvation (GBCS) method. […]

T1 sequence (P02699 whole entry): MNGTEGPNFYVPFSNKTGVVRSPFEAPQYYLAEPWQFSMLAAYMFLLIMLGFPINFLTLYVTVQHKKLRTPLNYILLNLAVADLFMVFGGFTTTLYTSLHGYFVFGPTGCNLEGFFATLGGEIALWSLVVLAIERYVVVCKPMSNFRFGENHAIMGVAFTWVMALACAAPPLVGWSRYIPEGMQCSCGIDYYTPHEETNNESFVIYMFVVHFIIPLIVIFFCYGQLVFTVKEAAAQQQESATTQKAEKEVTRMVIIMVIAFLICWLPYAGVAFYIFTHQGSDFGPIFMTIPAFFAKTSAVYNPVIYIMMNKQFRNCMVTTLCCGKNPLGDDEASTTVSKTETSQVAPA
Sequence of bovine rhodopsin (P02699 whole entry): as above

CC1=C(/C=C/C(C)=C/C=C/C(C)=C/C=O)C(C)(C)CCC1 [11-cis-retinal]
effect on G-protein signaling (rhodopsin [1]): inverse agonist

CC1=C(/C=C/C(C)=C/C=C/C(C)=C/C=O)C(C)(C)CCC1 [retinal]
energy stored upon isomerization in the protein (rhodopsin [2]): 34.7 ± 2.2 kcal/mol

CC1=C(/C=C/C(C)=C/C=C/C(C)=C/C=O)C(C)(C)CCC1 [all-trans-retinal]
difference in binding energy (bovine rhodopsin): 32 kcal/mol
